{
  "source": "paper PMC10166914",
  "about": "“GTN057, a komaroviquinone derivative, induced myeloma cells' death in vivo and inhibited c‐MET tyrosine kinase” (Cancer Medicine, 2023)",
  "key": {"MUM24 cells [1]": {"tested_on": "MUM24 cells", "experiment": "Combination treatment with bortezomib or lenalidomide, MTT assay", "format": "cell-based, human", "settings": "GTN057 with bortezomib or lenalidomide", "experimental": "FIGURE 1 GTN057 induced the cell death of MM cells in vitro. (A) The chemical structure of GTN057 and the putative degradation product, GTN054. (B) GTN057 induced the cell death of the MM cell lines. The cells were incubated with GTN057 for 48 h, and the number of viable cells was counted by trypan blue exclusion test. Bars: mean ± SD (n = 3). *p < 0.05 versus control. (C) Growth‐inhibitory effects of GTN057 on CD138‐positive cells obtained from MM patients' bone marrow. Cells were treated with GTN057. The viability was evaluated by an MTT assay. Bars: mean ± SD (n = 3). *p < 0.05 versus control. (D) Combination treatment of GTN057 with bortezomib (Btz) or lenalidomide (Len), two major standard myeloma drugs, in MUM24 cells. The viability was evaluated by an MTT assay. Bars: mean ± SD (n = 3). *p < 0.05 versus GTN057 alone. […]\nFor the 3‐[…] (MTT) assay (Roche Diagnostics), 6 × 10^4 cells/mL of CD138‐positive bone marrow cells were cultured in 96‐well plates in triplicate with various concentrations of GTN057 for 48 h. The cell viability was examined by MTT dye absorbance in accord with the manufacturer's manual. […]"}, "KMS11 cells": {"tested_on": "KMS11 cells", "experiment": "In vivo tumor growth assay, KMS11 xenograft", "parameters": "species or system ICR/SCID mice", "settings": "100 mg/kg i.p., after 2 weeks of treatment, KMS11-xenografted SCID mice", "experimental": "For the in vivo tumor growth assay, we injected 3 × 10^7 cells of KMS11 cells subcutaneously into the flank of male 5‐week‐old ICR/SCID mice. When the tumors reached 100 mm^3, we injected (i.p.) 20 or 100 mg/kg of GTN057 solubilized in 1% Tween® 80 + 10% DMSO in saline twice every 3 days for 2 weeks. We measured the tumor volumes every day for 2 weeks as the length × width^2 × 0.52.[21]"}, "KMS11 xenografted tumor": {"tested_on": "KMS11 xenografted tumor", "experiment": "Histopathologic and immunohistochemical examination of xenografts", "format": "in vivo, ICR/SCID mice", "settings": "GTN057-treated KMS11 xenografts, immunohistochemistry", "from_the_text": "Xenografts were excised and fixed with 10% formalin and embedded in paraffin. Five‐μm sliced sections were used for hematoxylin and eosin (H&E) staining. For the immunohistochemical evaluation, we used anti‐human cleaved poly(ADP‐ribose), polymerase (PARP), polyclonal antibody (pAb) (Cell Signaling Technology Japan, Tokyo), anti‐human Ki‐67 monoclonal antibody (mAb) (clone MIB‐1) (Dako Japan, Tokyo), anti‐human cleaved caspase‐3 (Asp175), pAb (Cell Signaling Technology Japan), and anti‐human Factor VIII mAb (Atlas Antibodies)."}, "MUM24 cells [2]": {"tested_on": "MUM24 cells", "experiment": "ROS production and growth recovery by anti-oxidants", "format": "cell-based, human", "experimental": "First, 2 × 10^5 cells/mL of MUM24 cells were incubated with or without 6 mM NAC (N‐acetyl cysteine; Sigma‐Aldrich) or 3 mM GSH (glutathione; Sigma‐Aldrich) for 2 h. Next, 20 μM GTN057 was added and cultured for an additional 72 h. Cells were incubated with 1 μM CM‐H2DCFDA (i.e., 5‐(and‐6)‐chloromethyl‐2′, 7′‐dichlorodihydrofluorescein diacetate) for 30 min. For the evaluation of ROS production, the cells were stained with CM‐H2DCFDA and analyzed using a FACS (fluorescence‐activated cell sorting) system (LSR II, BD Biosciences). For the assessment of growth recovery by NAC or GSH, 2 × 10^5 cells/mL of MUM24 cells were also treated with 20 μM GTN057 in the presence or absence of 6 mM NAC or 3 mM GSH as described above. We conducted a trypan blue exclusion test to determine the numbers of viable cells."}},
  "data": [
    {"compound": "COc1c(OC(C)=O)c2c(c(O)c1C(C)C)C(=O)CC1C(C)(C)CCC[C@]1(O)C2", "note": "(some centres unmarked) [GTN057]", "values": [
      {"measurement": "Effect of combination treatment", "setting": "MUM24 cells [1]", "value": "additive anti‐myeloma effect"},
      {"measurement": "Average tumor volume", "setting": "KMS11 cells", "value": "0.71 ± 0.17", "unit": "cm^3"},
      {"measurement": "Average tumor weight", "setting": "KMS11 cells", "value": "0.98 ± 0.16", "unit": "g"},
      {"measurement": "Number of Factor VIII-positive vessel cells", "setting": "KMS11 xenografted tumor", "value": "decreased"},
      {"measurement": "Numbers of cleaved-caspase-3-positive and PARP-positive cells", "setting": "KMS11 xenografted tumor", "value": "significantly increased"},
      {"measurement": "Staining for cell proliferation marker MIB-1/Ki67", "setting": "KMS11 xenografted tumor", "value": "weakened"},
      {"measurement": "Abrogation of growth inhibition and apoptosis by anti-oxidants", "setting": "MUM24 cells [2]; 20 μM GTN057 with 6 mM NAC or 3 mM GSH", "value": "not significantly abrogated"},
      {"measurement": "ROS production", "setting": "MUM24 cells [2]; 20 μM, MM cells, CM-H2DCFDA, FACS", "value": "produced ROS"}
    ]}
  ]
}
